The values below come from the NIST ThermoML archive (doi:10.1021/je900785z).

The conditions of the data set: for mass density: 298.15 K, 101.33 kPa, Liquid.

One may read the mass density as the mass of a sample divided by its volume.

± gives the expanded uncertainty stated by the source.

Turning to `O=C1CCCCCN1` [1-aza-2-cycloheptanone], where the note is “Crystal, visual observation”, the Normal melting temperature came to 69.06 ± 0.39 °C.
In the case of `CC(C)CC(C)(C)C` [2,2,4-trimethylpentane], the mass density is 687.757 ± 0.84 kg/m3.
For the compound `CCCCCCCCCC` [decane], the mass density was found to be 726.357 ± 1.2 kg/m3.
On the same count and under the same terms, then `CCCCCCC` [heptane], with 679.627 ± 0.85 kg/m3; and `CCCCCCCCC` [nonane], with 714.064 ± 1.3 kg/m3; and `CCCCCCCC` [octane], with 698.636 ± 1.3 kg/m3.
